pEC50: −log10 of the molar value. Where “and” joins values, the source holds several entries; their conditions need not be identical. Equal entries are not always repeated.
What was measured:
Type in all cases: binding
[1] = target: T1, 14-3-3β/CFTRpS753pS768 complex (Homo sapiens, UniProt P13569+P31946); assay: FP assay, 14-3-3β titration at constant compound concentration (apparent KD)
T1 construct: His6 (cleaved yes); made in house; peptide synthetic

[2] = target: T1, 14-3-3β/CFTRpS753pS768 complex; assay: Dose-response fluorescence polarization (FP) assay, compound titration; settings: for FP signal: With 14-3-3
Outline: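 Compounds were titrated in two-fold dilutions against 10 μM 14-3-3β and FITC-CFTR pS753pS768 peptide (100 nM or 10 nM). Buffer: 10 mM HEPES pH 7.4, 150 mM NaCl, 0.1% Tween20, 1 mg/mL BSA. Polarization was read at ex 485/em 535 nm, and EC50 was derived from a four-parameter variable-slope fit.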

[3] = target: T2, FITC-labeled CFTRpS753pS768 peptide (no 14-3-3) (Homo sapiens, UniProt P13569); assay: Dose-response FP control assay in the absence of 14-3-3; settings: No 14-3-3
T2 construct: made in house; host or cells: synthetic peptide
T2 sequence (P13569 747-774 limits assumed): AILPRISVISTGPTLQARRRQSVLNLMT
Outline: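 Control run without 14-3-3: FITC-CFTR pS753/pS768 peptide (100 nM or 10 nM) with compound titrated in twofold dilutions in 10 mM HEPES pH 7.4, 150 mM NaCl, 0.1% Tween20, 1 mg/mL BSA. Fluorescence polarization read at ex 485/em 535 nm, background subtracted, n = 3. Curves fitted by four-parameter log(agonist) vs. response.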

T1 sequence (P31946 whole entry): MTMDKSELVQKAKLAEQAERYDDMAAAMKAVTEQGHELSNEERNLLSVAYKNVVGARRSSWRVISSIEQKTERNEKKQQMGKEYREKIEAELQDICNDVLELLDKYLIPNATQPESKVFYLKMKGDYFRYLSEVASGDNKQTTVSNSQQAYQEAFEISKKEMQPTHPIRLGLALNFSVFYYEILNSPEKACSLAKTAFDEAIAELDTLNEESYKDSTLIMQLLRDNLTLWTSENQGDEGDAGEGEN

For `CN1CC(=O)NC(CCCNC(=N)N)C(=O)NC(CCC(N)=O)C(=O)NC(CCCNC(=N)N)C(=O)NCc2ccccc2-c2cccc(c2)C1` (centres unmarked) [CY007491], the “Fluorescence polarization signal, 14-3-3β titration” value (“Fluorescence polarization signal” for short) ([1]; CY compound (100 μM), 14-3-3β concentration 3.05176e-8 M) was 2.667, the “Fluorescence polarization signal” value ([1]; CY compound (100 μM), 14-3-3β concentration 6.10352e-8 M) was 5.667 and 3.667 and 4.667 and the “Fluorescence polarization signal” value ([1]; CY compound (100 μM), 14-3-3β concentration 2.44141e-7 M) was 10.6667 and 8.667. For the same molecule, the “Fluorescence polarization signal” value ([1]; CY compound (100 μM), 14-3-3β concentration 4.88281e-7 M) was 20.6667 and 17.6667 and 18.6667, the “Fluorescence polarization signal” value ([1]; CY compound (100 μM), 14-3-3β concentration 9.76563e-7 M) was 35.6667 and 31.6667 and 32.6667 and the “Fluorescence polarization signal” value ([1]; CY compound (100 μM), 14-3-3β concentration 1.95313e-6 M) was 46.6667 and 44.6667 and 41.6667. For the same molecule, the “Fluorescence polarization signal” value ([1]; CY compound (100 μM), 14-3-3β concentration 3.90625e-6 M) was 61.6667 and 57.6667 and 56.6667, the “Fluorescence polarization signal” value ([1]; CY compound (100 μM), 14-3-3β concentration 7.8125e-6 M) was 73.6667 and 74.6667 and 72.6667 and the “Fluorescence polarization signal” value ([1]; CY compound (100 μM), 14-3-3β concentration 1.5625e-5 M) was 84.6667 and 82.6667 and 83.6667. For the same molecule, the “Fluorescence polarization signal” value ([1]; CY compound (100 μM), 14-3-3β concentration 3.125e-5 M) was 94.6667 and 91.6667 and 92.6667, the “Fluorescence polarization signal” value ([1]; CY compound (100 μM), 14-3-3β concentration 6.25e-5 M) was 107.667 and 108.667 and the “Fluorescence polarization signal” value ([1]; CY compound (100 μM), 14-3-3β concentration 0.000125 M) was 115.667 and 120.667 and 113.667. The “Fluorescence polarization signal” value ([1]; CY compound (100 μM), 14-3-3β concentration 0.00025 M) was 128.667 and 129.667, the “Fluorescence polarization signal” value ([1]; CY compound (100 μM), 14-3-3β concentration 0.0005 M) was 146.667 and 147.667 and the “Fluorescence polarization signal” value ([1]; FC-A + CY compound, 14-3-3β concentration 7.62939e-9 M) was 2 and 1. The “Fluorescence polarization signal” value ([1]; FC-A + CY compound, 14-3-3β concentration 6.10352e-8 M) was 9 and 13 and 12, the “Fluorescence polarization signal” value ([1]; FC-A + CY compound, 14-3-3β concentration 1.2207e-7 M) was 23 and the “Fluorescence polarization signal” value ([1]; FC-A + CY compound, 14-3-3β concentration 2.44141e-7 M) was 39 and 43 and 40. For the same molecule, the “Fluorescence polarization signal” value ([1]; FC-A + CY compound, 14-3-3β concentration 4.88281e-7 M) was 61 and 66 and 64, the “Fluorescence polarization signal” value ([1]; FC-A + CY compound, 14-3-3β concentration 9.76563e-7 M) was 90 and 91 and the “Fluorescence polarization signal” value ([1]; FC-A + CY compound, 14-3-3β concentration 1.95313e-6 M) was 115 and 116. The “Fluorescence polarization signal” value ([1]; FC-A + CY compound, 14-3-3β concentration 3.90625e-6 M) was 131 and 135 and 137, the “Fluorescence polarization signal” value ([1]; FC-A + CY compound, 14-3-3β concentration 7.8125e-6 M) was 145 and 142 and 147 and the “Fluorescence polarization signal” value ([1]; FC-A + CY compound, 14-3-3β concentration 1.5625e-5 M) was 154 and 157. For the same molecule, the “Fluorescence polarization signal” value ([1]; FC-A + CY compound, 14-3-3β concentration 3.125e-5 M) was 158 and 155 and 159, the “Fluorescence polarization signal” value ([1]; FC-A + CY compound, 14-3-3β concentration 6.25e-5 M) was 165 and 162 and the “Fluorescence polarization signal” value ([1]; FC-A + CY compound, 14-3-3β concentration 0.000125 M) was 160 and 162 and 164. For the same molecule, the “Fluorescence polarization signal” value ([1]; FC-A + CY compound, 14-3-3β concentration 0.00025 M) was 164 and 166 and 167, the “Fluorescence polarization signal” value ([1]; FC-A + CY compound, 14-3-3β concentration 0.0005 M) was 172 and 174 and 170 and the pEC50 ([2]; 14-3-3β 10 μM, labeled CFTRpS753pS768 100 nM, read-out: EC50) was 3.61. The FP signal ([2]; compound 476.8 pM) was 4, the FP signal ([2]; compound 953.7 pM) was 5 and the FP signal ([2]; compound 1.90735e-9 M) was 5. It also gave an FP signal ([2]; compound 3.8147e-9 M) of 6, an FP signal ([2]; compound 7.6294e-9 M) of 4 and an FP signal ([2]; compound 1.52588e-8 M) of 6. The FP signal ([2]; compound 3.05176e-8 M) was 3, the FP signal ([2]; compound 6.10352e-8 M) was 5 and the FP signal ([2]; compound 1.2207e-7 M) was 8. It also gave an FP signal ([2]; compound 2.44141e-7 M) of 6, an FP signal ([2]; compound 4.88281e-7 M) of 5 and an FP signal ([2]; compound 9.76563e-7 M) of 5. It also gave an FP signal ([2]; compound 1.95313e-6 M) of 6, an FP signal ([2]; compound 3.90625e-6 M) of 7 and an FP signal ([2]; compound 7.8125e-6 M) of 7. For the same molecule, the FP signal ([2]; compound 1.5625e-5 M) was 9, the FP signal ([2]; compound 3.125e-5 M) was 18 and the FP signal ([2]; compound 6.25e-5 M) was 35. It also gave an FP signal ([2]; compound 0.000125 M) of 83, an FP signal ([2]; compound 0.00025 M) of 142 and an FP signal ([2]; compound 0.0005 M) of 193. The FP signal ([2]; compound 0.001 M) was 240, the FP signal ([3]; compound 476.8 pM) was 4 and the FP signal ([3]; compound 953.7 pM) was 5. The FP signal ([3]; compound 1.90735e-9 M) was 5, the FP signal ([3]; compound 3.8147e-9 M) was 6 and the FP signal ([3]; compound 7.6294e-9 M) was 4. It also gave an FP signal ([3]; compound 1.52588e-8 M) of 6, an FP signal ([3]; compound 3.05176e-8 M) of 3 and an FP signal ([3]; compound 6.10352e-8 M) of 5. It also gave an FP signal ([3]; compound 1.2207e-7 M) of 8, an FP signal ([3]; compound 2.44141e-7 M) of 6 and an FP signal ([3]; compound 4.88281e-7 M) of 5. For the same molecule, the FP signal ([3]; compound 9.76563e-7 M) was 5, the FP signal ([3]; compound 1.95313e-6 M) was 6 and the FP signal ([3]; compound 3.90625e-6 M) was 7. It also gave an FP signal ([3]; compound 7.8125e-6 M) of 7, an FP signal ([3]; compound 1.5625e-5 M) of 9 and an FP signal ([3]; compound 3.125e-5 M) of 18. It also gave an FP signal ([3]; compound 6.25e-5 M) of 35, an FP signal ([3]; compound 0.000125 M) of 83 and an FP signal ([3]; compound 0.00025 M) of 142. For the same molecule, the FP signal ([3]; compound 0.0005 M) was 193 and the FP signal ([3]; compound 0.001 M) was 240.

— article PMC9226124, “Macrocycle-stabilization of its interaction with 14-3-3 increases plasma membrane localization and activity of CFTR” (Nature Communications, 2022)
